Test results: patent publication US8980819B2, “4(3)-(4-hydroxy-4-methylpentyl)-3-cyclohexene-1-carbonitrile” (Kao Corporation, priority 2013, dated 2015)

Experiment: Stability in an aqueous vehicle
Type: physicochemical
Conditions: no test data printed

4(3)-(4-hydroxy-4-methylpentyl)-3-cyclohexene-1-carbonitrile [Example 1]
Stability in an aqueous vehicle: stable in an aqueous vehicle
